Each structure is given as a SMILES string. “And” between values parts separate entries of the source, which are not always exact repeats. Equal entries are not always repeated.

The target of this assay is DNA topoisomerase II (Homo sapiens) (UniProt P11388+Q02880). In words: Percentage of intracellular covalent DNA-topoisomerase II complexes formed. The format is cell-based.
With `COc1cc([C@@H]2c3cc4c(cc3[C@@H](O)[C@H]3COC(=O)[C@H]23)OCO4)cc(OC)c1O`, the Complex formation came out at 42.2%.

With `COc1cc([C@@H]2c3cc4c(cc3[C@@H](Nc3ccc5c(c3)OCO5)[C@H]3COC(=O)[C@H]23)OCO4)cc(OC)c1O`, the Complex formation is 164%.

For `COc1cc([C@@H]2c3cc4c(cc3[C@@H](Nc3ccc5c(c3)OCCO5)[C@H]3COC(=O)[C@H]23)OCO4)cc(OC)c1O`, the Complex formation was 279%.

On to `COc1cc([C@@H]2c3cc(O)c(O)cc3C(Nc3ccc(C#N)cc3)[C@H]3COC(=O)[C@H]23)cc(OC)c1OC` (some centres undefined), for which the Complex formation came to 33%.

As for `COc1cc(CN[C@@H]2c3cc4c(cc3[C@@H](c3cc(OC)c(O)c(OC)c3)[C@H]3C(=O)OC[C@@H]32)OCO4)cc(OC)c1`, the Complex formation amounted to 144%.

Take `COc1cccc(N[C@@H]2c3cc4c(cc3[C@@H](c3cc(OC)c(O)c(OC)c3)[C@H]3C(=O)OC[C@@H]32)OCO4)c1`: the Complex formation turned out to be 104%.

The compound `COc1cc([C@@H]2c3cc4c(cc3C(Nc3ccc(F)cc3)[C@H]3COC(=O)[C@H]23)OCO4)cc(O)c1O` (some centres undefined) registered a Complex formation of 117%.

The compound `COc1cc([C@@H]2c3cc4c(cc3[C@@H](NCc3ccc(F)cc3)[C@H]3COC(=O)[C@H]23)OCO4)cc(OC)c1O` had a Complex formation of 169%.

For `COc1cc([C@@H]2c3cc4c(cc3[C@@H](Nc3ccc(C#N)cc3)[C@H]3COC(=O)[C@H]23)OCO4)cc(OC)c1O`, the Complex formation worked out at 211%.

`COc1cc([C@@H]2c3cc4c(cc3[C@@H](NC(=O)c3ccc(N)cc3)[C@H]3COC(=O)[C@H]23)OCO4)cc(OC)c1O` showed a Complex formation of 120%.

On to `COc1cc([C@@H]2c3cc(O)c(O)cc3[C@@H](Nc3ccccc3)[C@H]3COC(=O)[C@H]23)cc(OC)c1OC`, for which the Complex formation turned out to be 9%.

Compound `CCOC(=O)c1ccccc1N[C@@H]1c2cc3c(cc2[C@@H](c2cc(OC)c(O)c(OC)c2)[C@H]2C(=O)OC[C@@H]21)OCO3` registered a Complex formation of 4%.

Take `CCOC(=O)c1ccc(NC2c3cc(O)c(O)cc3[C@@H](c3cc(OC)c(OC)c(OC)c3)[C@H]3C(=O)OC[C@H]23)cc1` (some centres undefined): the Complex formation amounted to 22%.

Consider `COc1cc2c(cc1OC)[C@@H](c1cc(OC)c(O)c(OC)c1)[C@H]1C(=O)OC[C@@H]1C2Nc1ccc(F)cc1` (some centres undefined), for which the Complex formation turned out to be 108%.

For the compound `COc1cc2c(cc1OC)[C@@H](c1cc(OC)c(OC)c(OC)c1)[C@H]1C(=O)OC[C@@H]1C2Nc1ccc(C#N)cc1` (some centres undefined), the Complex formation came to 12%.

In turn, `COc1cc(N[C@@H]2c3cc4c(cc3[C@@H](c3cc(OC)c(O)c(OC)c3)[C@H]3C(=O)OC[C@@H]32)OCO4)c(C)cc1[N+](=O)[O-]` had a Complex formation of 3.5%.

`COc1ccc(NC2c3cc4c(cc3[C@@H](c3cc(O)c(O)c(OC)c3)[C@H]3C(=O)OC[C@H]23)OCO4)cc1OC` (some centres undefined) registered a Complex formation of 69%.

In the case of `COc1cc([C@@H]2c3cc(O)c(O)cc3[C@@H](Nc3cccc(O)c3)[C@H]3COC(=O)[C@H]23)cc(OC)c1OC`, the Complex formation was 4%.

Take `COc1cc([C@@H]2c3cc4c(cc3[C@@H](NCCN3CCCCC3)[C@H]3COC(=O)[C@H]23)OCO4)cc(OC)c1O`: the Complex formation is 190% and 183%.

Compound `COc1cc([C@@H]2c3cc4c(cc3[C@@H](Oc3ccc(F)cc3)[C@H]3COC(=O)[C@H]23)OCO4)cc(OC)c1O` showed a Complex formation of 57%.

`COc1cc2c(cc1OC)[C@@H](c1cc(OC)c(O)c(OC)c1)[C@H]1C(=O)OC[C@@H]1C2Nc1ccc(C#N)cc1` (some centres undefined) had a Complex formation of 125%.

As for `COc1cc([C@@H]2c3cc4c(cc3[C@@H](NC(=O)Nc3ccccc3)[C@H]3COC(=O)[C@H]23)OCO4)cc(OC)c1O`, the Complex formation came out at 148%.

With `COc1cc([C@@H]2c3cc4c(cc3C(Nc3ccc(Cl)cc3)[C@H]3COC(=O)[C@H]23)OCO4)cc(O)c1O` (some centres undefined), the Complex formation was found to be 77%.

For `COc1cc([C@@H]2c3cc4c(cc3[C@@H](Nc3ccccc3O)[C@H]3COC(=O)[C@H]23)OCO4)cc(OC)c1O`, the Complex formation stood at 151%.

For the compound `COc1cc([C@@H]2c3cc4c(cc3[C@@H](Nc3cccc(N)c3)[C@H]3COC(=O)[C@H]23)OCO4)cc(OC)c1O`, the Complex formation came to 140%.

Regarding `COc1cc([C@@H]2c3cc4c(cc3[C@@H](NCc3cccc(F)c3)[C@H]3COC(=O)[C@H]23)OCO4)cc(OC)c1O`, the Complex formation was 216%.

Compound `COc1cc([C@@H]2c3cc4c(cc3[C@@H](NC(=O)c3cccc(F)c3)[C@H]3COC(=O)[C@H]23)OCO4)cc(OC)c1O` had a Complex formation of 116%.

Take `COc1cc([C@@H]2c3cc4c(cc3[C@@H](Nc3cc(F)cc(F)c3)[C@H]3COC(=O)[C@H]23)OCO4)cc(OC)c1O`: the Complex formation amounted to 115%.

Take `COc1cc([C@@H]2c3cc4c(cc3[C@@H](Nc3cccc([N+](=O)[O-])c3)[C@H]3COC(=O)[C@H]23)OCO4)cc(OC)c1O`: the Complex formation is 230%.

`COc1cc([C@@H]2c3cc4c(cc3[C@@H](Nc3cccc(F)c3)[C@H]3COC(=O)[C@H]23)OCO4)cc(OC)c1O` came in with a Complex formation of 158%.

As to `COc1cc([C@@H]2c3cc4c(cc3[C@@H](Nc3ccc(NC(=O)C56CCC(C)(C(=O)O5)C6(C)C)cc3)[C@H]3COC(=O)[C@H]23)OCO4)cc(OC)c1O` (some centres undefined), the Complex formation was found to be 88%.

Take `COc1cc([C@@H]2c3cc4c(cc3[C@@H](NCCO)[C@H]3COC(=O)[C@H]23)OCO4)cc(OC)c1O`: the Complex formation was 121%.

On to `COc1cc([C@@H]2c3cc4c(cc3[C@@H](N[C@H](C)CO)[C@H]3COC(=O)[C@H]23)OCO4)cc(OC)c1O`, for which the Complex formation was 162%.

As for `COc1cc([C@@H]2c3cc4c(cc3[C@@H](NCCN(C)C)[C@H]3COC(=O)[C@H]23)OCO4)cc(OC)c1O`, the Complex formation is 183% and 203%.

Regarding `COc1cc([C@@H]2c3cc4c(cc3[C@@H](Nc3cccnc3)[C@H]3COC(=O)[C@H]23)OCO4)cc(OC)c1O`, the Complex formation was 148%.

In turn, `COc1cc([C@@H]2c3cc4c(cc3[C@@H](Nc3nc5ccccc5[nH]3)[C@H]3COC(=O)[C@H]23)OCO4)cc(OC)c1O` had a Complex formation of 58%.

Regarding `COc1cc([C@@H]2c3cc4c(cc3[C@@H](Nc3ccccn3)[C@H]3COC(=O)[C@H]23)OCO4)cc(OC)c1O`, the Complex formation came out at 97%.

Take `COc1cc([C@@H]2c3cc4c(cc3[C@@H](O[C@@H]3O[C@@H]5CO[C@@H](C)O[C@H]5[C@H](O)[C@H]3O)[C@H]3COC(=O)[C@H]23)OCO4)cc(OC)c1O`: the Complex formation was determined as 100%.

Compound `COc1cc([C@@H]2c3cc4c(cc3[C@@H](Nc3cc(N)ccc3O)[C@H]3COC(=O)[C@H]23)OCO4)cc(OC)c1O` yielded a Complex formation of 11%.

The compound `CCOC(=O)CC[C@H](NC(=O)c1ccc(N[C@@H]2c3cc4c(cc3[C@@H](c3cc(OC)c(O)c(OC)c3)[C@H]3C(=O)OC[C@@H]32)OCO4)cc1)C(=O)OCC` showed a Complex formation of 83%.

With `COCCN[C@@H]1c2cc3c(cc2[C@@H](c2cc(OC)c(O)c(OC)c2)[C@H]2C(=O)OC[C@@H]21)OCO3`, the Complex formation came out at 111%.

As for `COC1=CC([C@@H]2c3cc4c(cc3C(NC(=O)N(CCCl)N=O)[C@H]3COC(=O)[C@H]23)OCO4)=CC(=O)C1=O` (some centres undefined), the Complex formation worked out at 7%.

Compound `COc1cc([C@@H]2c3cc4c(cc3C(Nc3ccc(O)cc3)[C@H]3COC(=O)[C@H]23)OCO4)cc(O)c1O` (some centres undefined) showed a Complex formation of 83%.

Consider `COc1cc([C@@H]2c3cc4c(cc3[C@@H](OC(=O)c3ccc(N)cc3)[C@H]3COC(=O)[C@H]23)OCO4)cc(OC)c1O`, for which the Complex formation came to 94%.
